Source: US20250100996A1, “HETEROCYCLOALKYL AND HETEROARYL COMPOUNDS AND PHARMACEUTICAL COMPOSITIONS THAT MODULATE IKZF2” (Plexium, Inc., priority 2021, published 2025)

Legend:
IKZF2 (Helios) [1] = target: T1, IKZF2 (Helios) (Homo sapiens, UniProt Q9UKS7); assay: IKZF2 reporter degradation assay (HEK 293T IKZF2-mNeonGreen reporter cell line); assay type: cell-based; conditions: HEK 293T IKZF2-mNeonGreen reporter, 24 hours incubation
T1 construct: Leu-Asp junction (codons ctcgac before the linker); mScarlet (behind P2A) (C, cleaved yes); expressed in transfected cells
Procedure, shortened: (§1)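 Stable clonal HEK 293T lines express each IKZF-mNeonGreen-P2A-mScarlet fusion. Cells were seeded, attached overnight, then given compound (≤0.5% DMSO, quadruplicate) for 24 h at 37° C. Imaged for percent mNeonGreen-positive cells, segmented on mScarlet. DC50 from four-parameter logistic fit.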

IKZF2 (Helios) [2] = target: T2, IKZF2 (Helios) (Homo sapiens, UniProt Q96SW2+Q9UKS7); assay: as above; assay type: cell-based; conditions: @ 1 μM, HEK 293T IKZF2-mNeonGreen reporter, 24 hours incubation; for inhibition at 1 µM: HEK-293T, 24 h
T2 construct: Leu-Asp junction (codons ctcgac before the linker); mScarlet (behind P2A) (C, cleaved yes); expressed in transfected cells
Procedure, shortened: as §1

IKZF1 (Ikaros) = target: T3, IKZF1 (Ikaros) (Homo sapiens, UniProt Q13422); assay: IKZF1 reporter degradation assay (HEK 293T IKZF1-mNeonGreen reporter cell line); assay type: cell-based; conditions: HEK 293T IKZF1-mNeonGreen reporter, 24 hours incubation
T3 construct: mScarlet (behind P2A) (C, cleaved yes); expressed in transfected cells
Excerpt: Polycistronic plasmids were constructed for the mammalian expression of fluorescent reporter fusions of human transcription factors IKZF1 (Ikaros), IKZF2 (Helios), and IKZF3 (Aiolos). The respective protein sequences had their C-terminal end joined to a GGGGS linker repeated three times followed by mNeonGreen, P2A sequence, and mScarlet. The DNA sequences of the open reading frames are as follows:
IKZF1, IKZF2, and IKZF3 constructs were cloned into the UCOE Hygromycin expression vectors (Millipore Sigma). Reporter constructs were transfected using cationic lipid reagents into adherent HEK 293T cells and stable integrants were selected by treatment with 200 μg/mL hygromycin B. Clonal populations were obtained from the population of stable integrants either by limiting dilution or fluorescence activated cell sorting.
The clonal stable cell lines were maintained under constant 200 μg/mL hygromycin B selection while being passaged for use in the degradation assays. […] The fluorescence intensity of the IKZF1/2/3-mNeonGreen (FITC channel) and mScarlet (PE channel) reporters were routinely analyzed by flow cytometry to confirm consistent expression levels between experiments.
The IKZF1/IKZF2/IKZF3 degradation assays were carried out by harvesting the HEK 293T reporter cell lines and resuspending the cells in media formulated for reduced background fluorescence (FluoroBrite; Thermo Fisher). The respective cell lines were seeded at a density of 4000 cells/well into black-walled 384-well optical grade assay tissue culture plates. The cells were incubated overnight at 37° C. to allow for attachment to the assay plate. Dilutions of the compounds were prepared in DMSO from 10 mM compound stocks. The assay plates were treated with appropriate concentrations of the compounds by dispensing the DMSO dilutions in quadruplicate wells with an upper limit of 0.5% final DMSO.
After 24 hours incubation with the compounds, the assay plates were imaged on an ImageXpress Pico microscopy system (cells maintained at 37° C. during imaging) to obtain the fluorescent readouts. The assay plates were imaged in the FITC and Tetramethylrhodamine (TRITC) channels to obtain the mNeonGreen fluorescence intensity (reporter degradation data) and mScarlet fluorescence intensity (for cell segmentation). 293T-IKZF1 and 293T-IKZF3 reporter cell lines were imaged with exposures of 500 milliseconds (ms) for both FITC and TRITC channels, while the 293T-IKZF2 reporter cell line was imaged with exposures of 1000 ms for FITC and 1250 ms for TRITC. The resulting data was analyzed with Cell Reporter Xpress software using the 2-channel cell scoring analysis with a “percent positive” readout. The TRITC channel was selected for the “nuclei” segmentation with a threshold of 20 while the FITC channel was selected for the “Marker 1” segmentation and a threshold of 100 for the IKZF1 and IKZF3 reporter lines. […] The minimum segmentation width was set to 6 micrometers and the maximum segmentation width was set to 15 micrometers for all cell lines. The DC50 calculations were determined by regression to best fit four-parameter logistic curves using GraphPad Prism.

[3] = target: T4, human E3 ligase component cereblon (CRBN) (Homo sapiens, UniProt Q96SW2); assay: Cereblon (CRBN) target engagement, NanoBRET TE Intracellular E3 Ligase Assay in transfected HEK-293T cells; conditions: read-out: CRBN Binding EC50
T4 construct: host or cells: HEK293T
Procedure, shortened: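 HEK-293T cells transiently co-transfected with NanoLuc-CRBN (N-terminal NanoLuc) and DDB1 were dosed with CRBN tracer and an 11-point compound series (typically 10 μM to 100 pM) for 2 h at 37° C. BRET at 450/610 nm gave IC50 by four-parameter logistic fit.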

IKZF3 (Aiolos) = target: T5, IKZF3 (Aiolos) (Homo sapiens, UniProt Q9UKT9); assay: IKZF3 reporter degradation assay (HEK 293T IKZF3-mNeonGreen reporter cell line); assay type: cell-based; conditions: HEK 293T IKZF3-mNeonGreen reporter, 24 hours incubation
T5 construct: Leu-Asp junction (codons ctcgac before the linker); mScarlet (behind P2A) (C, cleaved yes); expressed in transfected cells
Procedure, shortened: as §1

T1 sequence (Q9UKS7 whole entry): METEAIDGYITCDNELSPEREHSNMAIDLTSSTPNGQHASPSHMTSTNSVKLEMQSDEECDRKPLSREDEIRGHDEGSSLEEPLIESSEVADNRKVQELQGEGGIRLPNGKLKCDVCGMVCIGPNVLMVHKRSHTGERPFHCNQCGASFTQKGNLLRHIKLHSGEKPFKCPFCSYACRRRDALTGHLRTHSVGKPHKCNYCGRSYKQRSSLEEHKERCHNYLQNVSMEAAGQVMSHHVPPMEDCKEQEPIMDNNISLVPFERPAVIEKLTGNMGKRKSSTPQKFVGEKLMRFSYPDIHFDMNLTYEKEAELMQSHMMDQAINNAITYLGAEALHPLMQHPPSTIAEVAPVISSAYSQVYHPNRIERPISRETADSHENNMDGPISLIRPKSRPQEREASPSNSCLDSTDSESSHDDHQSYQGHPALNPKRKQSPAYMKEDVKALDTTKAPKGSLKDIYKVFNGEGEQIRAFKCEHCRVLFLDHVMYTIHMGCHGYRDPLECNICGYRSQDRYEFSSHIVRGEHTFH
T1 sequence (Q96SW2 whole entry, further chain): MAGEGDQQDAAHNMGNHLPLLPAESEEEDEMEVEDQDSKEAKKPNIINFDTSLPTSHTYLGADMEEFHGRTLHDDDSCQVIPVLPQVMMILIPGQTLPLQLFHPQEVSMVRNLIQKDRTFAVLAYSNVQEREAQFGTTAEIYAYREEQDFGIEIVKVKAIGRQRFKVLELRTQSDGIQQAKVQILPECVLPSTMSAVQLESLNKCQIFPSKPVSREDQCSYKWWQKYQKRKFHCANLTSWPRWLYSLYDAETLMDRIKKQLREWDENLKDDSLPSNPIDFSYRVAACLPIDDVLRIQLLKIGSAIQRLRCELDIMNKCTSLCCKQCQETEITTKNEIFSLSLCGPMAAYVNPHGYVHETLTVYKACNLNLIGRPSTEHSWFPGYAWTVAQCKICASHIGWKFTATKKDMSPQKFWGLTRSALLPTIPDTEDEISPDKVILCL
T1 sequence (Q16531 whole entry partner): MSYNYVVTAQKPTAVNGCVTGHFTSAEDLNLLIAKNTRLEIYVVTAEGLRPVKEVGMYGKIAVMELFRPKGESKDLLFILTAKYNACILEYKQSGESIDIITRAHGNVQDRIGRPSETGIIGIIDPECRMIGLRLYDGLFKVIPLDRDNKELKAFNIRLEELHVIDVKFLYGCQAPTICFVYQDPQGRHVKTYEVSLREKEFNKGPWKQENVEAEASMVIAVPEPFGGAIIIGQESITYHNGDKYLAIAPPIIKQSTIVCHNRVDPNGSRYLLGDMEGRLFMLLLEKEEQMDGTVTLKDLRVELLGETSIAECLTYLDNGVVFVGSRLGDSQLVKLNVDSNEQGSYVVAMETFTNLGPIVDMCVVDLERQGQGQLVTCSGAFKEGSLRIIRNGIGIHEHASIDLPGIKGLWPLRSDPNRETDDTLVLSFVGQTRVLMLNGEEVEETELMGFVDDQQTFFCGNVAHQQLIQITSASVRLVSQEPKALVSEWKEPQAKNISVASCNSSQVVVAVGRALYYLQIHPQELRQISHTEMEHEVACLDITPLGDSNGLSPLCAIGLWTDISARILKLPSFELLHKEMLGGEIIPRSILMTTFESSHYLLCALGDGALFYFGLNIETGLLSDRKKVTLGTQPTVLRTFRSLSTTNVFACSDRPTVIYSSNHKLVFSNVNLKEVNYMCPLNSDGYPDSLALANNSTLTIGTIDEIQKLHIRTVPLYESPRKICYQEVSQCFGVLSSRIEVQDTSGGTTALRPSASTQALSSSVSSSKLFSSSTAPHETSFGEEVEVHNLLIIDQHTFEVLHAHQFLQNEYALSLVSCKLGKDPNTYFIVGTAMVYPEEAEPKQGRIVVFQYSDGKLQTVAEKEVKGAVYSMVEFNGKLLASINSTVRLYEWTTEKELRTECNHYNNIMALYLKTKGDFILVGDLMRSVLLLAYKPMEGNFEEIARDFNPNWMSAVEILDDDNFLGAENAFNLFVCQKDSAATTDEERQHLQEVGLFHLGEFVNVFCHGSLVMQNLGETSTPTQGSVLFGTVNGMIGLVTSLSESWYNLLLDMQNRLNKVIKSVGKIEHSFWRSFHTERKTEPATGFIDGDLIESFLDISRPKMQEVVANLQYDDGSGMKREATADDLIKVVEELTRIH
T2 sequence (Q9UKS7 whole entry): as the sequence (Q9UKS7 whole entry) above
T2 sequence (Q96SW2 whole entry): as the sequence (Q96SW2 whole entry, further chain) above
T2 sequence (Q16531 whole entry partner): as the sequence (Q16531 whole entry partner) above
T3 sequence (Q96SW2 whole entry partner): as the sequence (Q96SW2 whole entry, further chain) above
T3 sequence (Q16531 whole entry partner): as the sequence (Q16531 whole entry partner) above
T3 sequence (Q13422 whole entry): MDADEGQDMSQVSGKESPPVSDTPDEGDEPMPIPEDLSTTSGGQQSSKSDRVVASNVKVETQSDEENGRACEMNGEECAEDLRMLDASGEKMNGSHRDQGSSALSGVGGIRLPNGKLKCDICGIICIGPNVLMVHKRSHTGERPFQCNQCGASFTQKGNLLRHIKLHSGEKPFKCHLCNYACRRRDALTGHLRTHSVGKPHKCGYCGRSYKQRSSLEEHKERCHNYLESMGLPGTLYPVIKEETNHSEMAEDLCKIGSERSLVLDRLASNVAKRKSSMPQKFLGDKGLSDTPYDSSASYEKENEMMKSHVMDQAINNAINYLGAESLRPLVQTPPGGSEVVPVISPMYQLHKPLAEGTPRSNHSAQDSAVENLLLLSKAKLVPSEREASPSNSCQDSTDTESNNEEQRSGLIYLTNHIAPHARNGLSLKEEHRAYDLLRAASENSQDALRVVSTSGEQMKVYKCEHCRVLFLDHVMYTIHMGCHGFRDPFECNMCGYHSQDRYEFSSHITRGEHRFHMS
T4 sequence (Q96SW2 whole entry): as the sequence (Q96SW2 whole entry, further chain) above
T4 sequence (Q16531 whole entry partner): as the sequence (Q16531 whole entry partner) above
T5 sequence (Q96SW2 whole entry partner): as the sequence (Q96SW2 whole entry, further chain) above
T5 sequence (Q16531 whole entry partner): as the sequence (Q16531 whole entry partner) above
T5 sequence (Q9UKT9 whole entry): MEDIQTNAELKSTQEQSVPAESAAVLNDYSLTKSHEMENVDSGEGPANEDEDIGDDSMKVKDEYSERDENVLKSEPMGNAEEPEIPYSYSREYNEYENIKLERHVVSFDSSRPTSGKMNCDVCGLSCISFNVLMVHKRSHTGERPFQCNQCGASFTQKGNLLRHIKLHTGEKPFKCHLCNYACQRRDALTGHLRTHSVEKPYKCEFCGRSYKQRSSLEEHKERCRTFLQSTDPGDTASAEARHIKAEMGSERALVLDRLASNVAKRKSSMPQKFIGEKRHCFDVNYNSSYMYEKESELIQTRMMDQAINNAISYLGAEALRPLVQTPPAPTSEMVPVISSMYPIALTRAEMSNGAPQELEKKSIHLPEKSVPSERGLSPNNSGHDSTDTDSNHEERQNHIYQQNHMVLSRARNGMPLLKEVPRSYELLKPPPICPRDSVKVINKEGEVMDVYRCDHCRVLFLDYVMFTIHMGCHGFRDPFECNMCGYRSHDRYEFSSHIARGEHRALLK

Row | SMILES | DC50 (IKZF2 (Helios) [1]) [nM] | inhibition at 1 µM (IKZF2 (Helios) [2]) [%] | DC50 (IKZF1 (Ikaros)) [µM] | EC50 [3] [nM] | DC50 (IKZF3 (Aiolos)) [µM] | IKZF2 % Degradation @ 1 μM (IKZF2 (Helios) [2]) [%]
1 | O=C1CCC(N2Cc3cc(OC4CCCCC4N4CC(c5cncnc5)C4)ccc3C2=O)C(=O)N1 (centres unmarked) [Compound 212-B, 3-(1-oxo-5-((2-(3-(pyrimidin-5-yl)azetidin-1-yl)cyclohexyl)oxy)isoindolin-2-yl)piperidine-2,6-dione] | 425 | 20.3 | > 30 | 57 | > 30 | –
2 | O=C1CCC(N2Cc3cc(O[C@@H]4CCCC[C@@H]4N4CC(c5ncc(C(F)(F)F)cn5)C4)ccc3C2=O)C(=O)N1 (mixture of isomers) [Compound 186-B, Rac-3-(1-oxo-5-(((cis)-2-(3-(5-(trifluoromethyl)pyrimidin-2-yl)azetidin-1-yl)cyclohexyl)oxy)isoindolin-2-yl)piperidine-2,6-dione] | 5 | 79.7 | > 30 | 6 | > 30 | –
3 | O=C1CCC(N2Cc3cc(OC4CCCCC4N4CC(c5cccc6[nH]ncc56)C4)ccc3C2=O)C(=O)N1 (centres unmarked) [Compound 211-B, 3-(5-((2-(3-(2H-indazol-4-yl)azetidin-1-yl)cyclohexyl)oxy)-1-oxoisoindolin-2-yl)piperidine-2,6-dione] | 64 | 79.3 | > 30 | 28 | > 30 | –
4 | O=C1CCC(N2Cc3cc(O[C@H]4CCCC[C@@H]4N4CC(c5ccncc5F)C4)ccc3C2=O)C(=O)N1 (mixture of isomers) [Compound 167-B, Rac-3-(5-(((trans)-2-(3-(3-fluoropyridin-4-yl)azetidin-1-yl)cyclohexyl)oxy)-1-oxoisoindolin-2-yl)piperidine-2,6-dione] | 241 | 28.8 | > 30 | 74 | > 30 | –
5 | O=C1CCC(N2Cc3cc(O[C@H]4CCCC[C@@H]4N4CC(c5ccc6c(c5)OCCO6)C4)ccc3C2=O)C(=O)N1 (stereo partly drawn) [Compound 58-A, 3-(5-(((1S,2S)-2-(3-(2,3-dihydrobenzo[b][1,4]dioxin-6-yl)azetidin-1-yl)cyclohexyl)oxy)-1-oxoisoindolin-2-yl)piperidine-2,6-dione] | 5 | 64.5 | > 30 | 3 | > 30 | –
6 | Cc1cnc(C2CN([C@H]3CCCC[C@H]3Oc3ccc4c(c3)CN(C3CCC(=O)NC3=O)C4=O)C2)o1 (mixture of isomers) [Compound 174-B, Rac-3-(5-(((cis)-2-(3-(5-methyloxazol-2-yl)azetidin-1-yl)cyclohexyl)oxy)-1-oxoisoindolin-2-yl)piperidine-2,6-dione] | 28 | 70.3 | > 30 | 36 | > 30 | –
7 | O=C1CCC(N2Cc3cc(O[C@H]4CCCC[C@H]4N4CC(c5ccncc5)C4)ccc3C2=O)C(=O)N1 (single isomer, unassigned) [Compound 86-B] | 189 | – | > 30 | 76 | – | 22.5
8 | O=C1CCC(N2Cc3cc(O[C@H]4CCCC[C@@H]4N4CC(c5ccncc5)C4)ccc3C2=O)C(=O)N1 (single isomer, unassigned) [Compound 85-B] | 216 | 27.5 | > 30 | 28 | – | –
